{
  "source": "ChEMBL document CHEMBL5465560",
  "about": "“Selectivity Literature for EUbOPEN Chemogenomic Library” (2024)",
  "key": {"D(1A) dopamine receptor": {"molecular_target": "D(1A) dopamine receptor (Homo sapiens, UniProt P21728)", "sequence (P21728 whole entry)": "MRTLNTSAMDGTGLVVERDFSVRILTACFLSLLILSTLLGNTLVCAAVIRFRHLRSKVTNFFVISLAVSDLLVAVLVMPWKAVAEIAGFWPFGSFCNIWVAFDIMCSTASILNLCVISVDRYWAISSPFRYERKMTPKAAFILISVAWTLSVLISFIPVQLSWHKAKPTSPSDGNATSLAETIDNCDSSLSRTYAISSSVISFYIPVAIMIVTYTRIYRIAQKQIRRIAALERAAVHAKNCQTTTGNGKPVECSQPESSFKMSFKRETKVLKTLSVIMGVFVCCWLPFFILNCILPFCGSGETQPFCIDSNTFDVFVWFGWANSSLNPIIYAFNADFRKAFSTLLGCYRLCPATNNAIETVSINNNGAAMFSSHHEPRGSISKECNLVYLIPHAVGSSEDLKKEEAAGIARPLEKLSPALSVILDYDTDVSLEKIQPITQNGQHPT", "assay": "Selectivity interaction (Eurofins CEREP Diversity Profile (receptors and ion channels)) EUB0000279b DRD1", "settings": "at 10 µM"}, "[1]": {"molecular_target": "Serine/threonine-protein kinase PLK2 (Homo sapiens, UniProt Q9NYY3)", "sequence (Q9NYY3 whole entry, looked up)": "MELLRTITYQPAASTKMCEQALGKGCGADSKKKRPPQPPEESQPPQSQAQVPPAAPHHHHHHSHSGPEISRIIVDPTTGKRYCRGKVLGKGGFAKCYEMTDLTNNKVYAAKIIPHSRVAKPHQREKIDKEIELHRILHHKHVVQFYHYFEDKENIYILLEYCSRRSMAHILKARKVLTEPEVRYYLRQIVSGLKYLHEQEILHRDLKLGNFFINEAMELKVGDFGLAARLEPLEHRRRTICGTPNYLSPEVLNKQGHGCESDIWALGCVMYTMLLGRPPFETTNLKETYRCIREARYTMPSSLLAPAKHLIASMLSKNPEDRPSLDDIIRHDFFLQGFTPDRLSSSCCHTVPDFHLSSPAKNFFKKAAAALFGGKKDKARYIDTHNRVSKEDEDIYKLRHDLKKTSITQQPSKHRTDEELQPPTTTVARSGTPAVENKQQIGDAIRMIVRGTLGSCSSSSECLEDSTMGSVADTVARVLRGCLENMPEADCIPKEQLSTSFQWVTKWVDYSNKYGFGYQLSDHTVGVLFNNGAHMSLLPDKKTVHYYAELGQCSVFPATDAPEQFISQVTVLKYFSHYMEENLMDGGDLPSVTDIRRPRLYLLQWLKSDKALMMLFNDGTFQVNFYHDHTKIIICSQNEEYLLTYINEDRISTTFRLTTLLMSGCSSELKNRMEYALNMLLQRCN", "assay": "Selectivity interaction (KinomeScan (DiscoverX)) EUB0000618a PLK2", "settings": "at 10 µM"}, "[2]": {"molecular_target": "Vascular endothelial growth factor receptor 3 (Homo sapiens, UniProt P35916)", "sequence (P35916 whole entry)": "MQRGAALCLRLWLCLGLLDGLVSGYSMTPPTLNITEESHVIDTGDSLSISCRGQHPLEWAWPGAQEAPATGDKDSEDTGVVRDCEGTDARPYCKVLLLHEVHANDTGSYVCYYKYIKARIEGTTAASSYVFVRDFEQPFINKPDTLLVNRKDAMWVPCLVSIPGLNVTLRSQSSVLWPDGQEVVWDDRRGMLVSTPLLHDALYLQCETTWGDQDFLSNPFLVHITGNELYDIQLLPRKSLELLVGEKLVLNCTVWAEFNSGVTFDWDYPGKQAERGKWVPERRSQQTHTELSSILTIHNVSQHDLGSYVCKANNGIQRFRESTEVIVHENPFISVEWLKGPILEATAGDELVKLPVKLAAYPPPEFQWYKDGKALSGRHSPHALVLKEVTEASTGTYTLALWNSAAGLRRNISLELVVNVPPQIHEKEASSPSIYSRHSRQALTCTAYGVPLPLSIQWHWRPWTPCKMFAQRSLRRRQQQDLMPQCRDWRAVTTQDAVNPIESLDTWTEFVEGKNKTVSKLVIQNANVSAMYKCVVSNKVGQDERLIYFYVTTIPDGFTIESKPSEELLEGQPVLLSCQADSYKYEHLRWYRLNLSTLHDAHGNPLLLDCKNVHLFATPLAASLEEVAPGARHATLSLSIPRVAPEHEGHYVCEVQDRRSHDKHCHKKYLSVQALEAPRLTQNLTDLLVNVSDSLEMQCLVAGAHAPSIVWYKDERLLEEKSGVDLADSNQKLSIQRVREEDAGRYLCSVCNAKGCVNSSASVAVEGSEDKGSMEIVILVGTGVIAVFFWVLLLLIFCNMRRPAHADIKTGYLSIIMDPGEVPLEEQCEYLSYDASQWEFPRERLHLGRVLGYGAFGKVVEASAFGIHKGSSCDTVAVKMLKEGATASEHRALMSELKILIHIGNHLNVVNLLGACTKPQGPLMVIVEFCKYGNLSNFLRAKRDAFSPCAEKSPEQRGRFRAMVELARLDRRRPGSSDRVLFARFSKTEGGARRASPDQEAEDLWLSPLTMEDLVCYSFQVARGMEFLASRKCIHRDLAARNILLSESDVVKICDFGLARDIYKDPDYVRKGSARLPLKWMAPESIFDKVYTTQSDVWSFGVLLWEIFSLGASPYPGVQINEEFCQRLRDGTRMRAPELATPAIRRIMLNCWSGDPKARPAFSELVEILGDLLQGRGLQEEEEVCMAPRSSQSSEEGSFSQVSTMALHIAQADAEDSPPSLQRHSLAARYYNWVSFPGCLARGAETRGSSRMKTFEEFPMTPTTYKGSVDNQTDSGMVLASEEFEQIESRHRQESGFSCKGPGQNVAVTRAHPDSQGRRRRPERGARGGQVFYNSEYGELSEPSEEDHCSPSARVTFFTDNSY", "assay": "Selectivity interaction (Upstate Kinase Profiler service (Millipore)) EUB0000056c FLT4", "settings": "at 1 µM"}, "[3]": {"molecular_target": "T1, Serine/threonine-protein kinase RIO3 (Homo sapiens) (UniProt O14730)", "T1 sequence (whole entry)": "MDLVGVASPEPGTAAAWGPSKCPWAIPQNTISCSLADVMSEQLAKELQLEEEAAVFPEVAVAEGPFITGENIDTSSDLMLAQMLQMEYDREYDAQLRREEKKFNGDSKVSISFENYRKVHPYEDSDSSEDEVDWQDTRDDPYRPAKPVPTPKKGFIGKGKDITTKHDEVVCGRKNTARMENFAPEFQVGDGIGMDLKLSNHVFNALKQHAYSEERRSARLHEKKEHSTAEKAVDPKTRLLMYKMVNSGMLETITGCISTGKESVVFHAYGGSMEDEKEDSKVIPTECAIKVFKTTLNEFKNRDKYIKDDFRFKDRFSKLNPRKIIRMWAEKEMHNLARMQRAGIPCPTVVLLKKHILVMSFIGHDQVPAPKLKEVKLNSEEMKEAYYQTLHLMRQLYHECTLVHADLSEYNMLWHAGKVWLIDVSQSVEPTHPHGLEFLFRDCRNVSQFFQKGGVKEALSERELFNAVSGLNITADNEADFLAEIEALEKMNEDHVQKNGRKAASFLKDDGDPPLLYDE", "settings": "at 10 µM"}, "[4]": {"molecular_target": "Serine/threonine-protein kinase 32C (Homo sapiens) (UniProt Q86UX6)", "sequence (Q86UX6 whole entry)": "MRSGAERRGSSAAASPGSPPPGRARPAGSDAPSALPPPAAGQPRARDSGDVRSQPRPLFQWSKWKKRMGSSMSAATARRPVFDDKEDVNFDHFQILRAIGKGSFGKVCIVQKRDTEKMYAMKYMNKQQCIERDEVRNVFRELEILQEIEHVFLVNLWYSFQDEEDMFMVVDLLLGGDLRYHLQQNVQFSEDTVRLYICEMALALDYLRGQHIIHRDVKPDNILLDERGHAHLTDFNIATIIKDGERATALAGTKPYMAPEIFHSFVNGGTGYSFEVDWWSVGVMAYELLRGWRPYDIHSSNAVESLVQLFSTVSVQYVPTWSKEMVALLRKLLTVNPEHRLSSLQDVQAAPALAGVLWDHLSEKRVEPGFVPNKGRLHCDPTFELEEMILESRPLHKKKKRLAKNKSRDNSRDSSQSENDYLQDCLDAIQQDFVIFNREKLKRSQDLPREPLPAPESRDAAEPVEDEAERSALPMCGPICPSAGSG", "assay": "Selectivity interaction (LanthaScreen Eu Kinase Binding Assay) EUB0001632a STK32C", "settings": "at 10 µM"}, "[5]": {"molecular_target": "T2, Phosphorylase b kinase gamma catalytic chain, liver/testis isoform (Homo sapiens) (UniProt P15735)", "T2 sequence (whole entry)": "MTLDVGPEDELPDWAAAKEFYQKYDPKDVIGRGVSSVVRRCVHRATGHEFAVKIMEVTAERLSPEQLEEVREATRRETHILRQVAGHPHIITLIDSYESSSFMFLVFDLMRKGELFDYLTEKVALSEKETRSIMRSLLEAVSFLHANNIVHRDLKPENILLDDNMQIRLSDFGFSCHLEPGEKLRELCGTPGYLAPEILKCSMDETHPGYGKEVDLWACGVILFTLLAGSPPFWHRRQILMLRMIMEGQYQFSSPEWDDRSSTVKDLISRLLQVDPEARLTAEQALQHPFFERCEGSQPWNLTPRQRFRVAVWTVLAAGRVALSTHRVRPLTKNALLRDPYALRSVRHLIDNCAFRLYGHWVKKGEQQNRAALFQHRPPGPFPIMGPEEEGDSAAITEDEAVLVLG", "assay": "Selectivity interaction (KinomeScan (DiscoverX)) EUB0000695a PHKG2", "settings": "at 100 nM"}, "[6]": {"molecular_target": "T3, TGF-beta receptor type-1 (Homo sapiens) (UniProt P36897)", "T3 sequence (whole entry)": "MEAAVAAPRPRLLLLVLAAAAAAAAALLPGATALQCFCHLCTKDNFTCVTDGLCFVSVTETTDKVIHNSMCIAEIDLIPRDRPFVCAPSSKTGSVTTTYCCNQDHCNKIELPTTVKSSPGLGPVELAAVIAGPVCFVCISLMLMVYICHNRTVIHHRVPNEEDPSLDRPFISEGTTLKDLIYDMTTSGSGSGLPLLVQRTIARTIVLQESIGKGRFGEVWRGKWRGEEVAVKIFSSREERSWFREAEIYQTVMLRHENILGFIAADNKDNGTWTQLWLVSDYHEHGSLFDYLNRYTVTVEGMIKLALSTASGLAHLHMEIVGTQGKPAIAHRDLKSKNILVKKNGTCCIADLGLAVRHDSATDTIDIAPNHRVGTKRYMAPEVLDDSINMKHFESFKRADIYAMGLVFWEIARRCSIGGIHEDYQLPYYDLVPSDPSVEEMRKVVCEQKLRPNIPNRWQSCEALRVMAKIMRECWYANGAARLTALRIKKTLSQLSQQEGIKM", "assay": "Selectivity interaction (KinomeScan (DiscoverX)) EUB0000695a TGFBR1", "settings": "at 100 nM"}, "[7]": {"molecular_target": "TRAF2 and NCK-interacting protein kinase (Homo sapiens) (UniProt Q9UKE5)", "sequence (Q9UKE5 whole entry, looked up)": "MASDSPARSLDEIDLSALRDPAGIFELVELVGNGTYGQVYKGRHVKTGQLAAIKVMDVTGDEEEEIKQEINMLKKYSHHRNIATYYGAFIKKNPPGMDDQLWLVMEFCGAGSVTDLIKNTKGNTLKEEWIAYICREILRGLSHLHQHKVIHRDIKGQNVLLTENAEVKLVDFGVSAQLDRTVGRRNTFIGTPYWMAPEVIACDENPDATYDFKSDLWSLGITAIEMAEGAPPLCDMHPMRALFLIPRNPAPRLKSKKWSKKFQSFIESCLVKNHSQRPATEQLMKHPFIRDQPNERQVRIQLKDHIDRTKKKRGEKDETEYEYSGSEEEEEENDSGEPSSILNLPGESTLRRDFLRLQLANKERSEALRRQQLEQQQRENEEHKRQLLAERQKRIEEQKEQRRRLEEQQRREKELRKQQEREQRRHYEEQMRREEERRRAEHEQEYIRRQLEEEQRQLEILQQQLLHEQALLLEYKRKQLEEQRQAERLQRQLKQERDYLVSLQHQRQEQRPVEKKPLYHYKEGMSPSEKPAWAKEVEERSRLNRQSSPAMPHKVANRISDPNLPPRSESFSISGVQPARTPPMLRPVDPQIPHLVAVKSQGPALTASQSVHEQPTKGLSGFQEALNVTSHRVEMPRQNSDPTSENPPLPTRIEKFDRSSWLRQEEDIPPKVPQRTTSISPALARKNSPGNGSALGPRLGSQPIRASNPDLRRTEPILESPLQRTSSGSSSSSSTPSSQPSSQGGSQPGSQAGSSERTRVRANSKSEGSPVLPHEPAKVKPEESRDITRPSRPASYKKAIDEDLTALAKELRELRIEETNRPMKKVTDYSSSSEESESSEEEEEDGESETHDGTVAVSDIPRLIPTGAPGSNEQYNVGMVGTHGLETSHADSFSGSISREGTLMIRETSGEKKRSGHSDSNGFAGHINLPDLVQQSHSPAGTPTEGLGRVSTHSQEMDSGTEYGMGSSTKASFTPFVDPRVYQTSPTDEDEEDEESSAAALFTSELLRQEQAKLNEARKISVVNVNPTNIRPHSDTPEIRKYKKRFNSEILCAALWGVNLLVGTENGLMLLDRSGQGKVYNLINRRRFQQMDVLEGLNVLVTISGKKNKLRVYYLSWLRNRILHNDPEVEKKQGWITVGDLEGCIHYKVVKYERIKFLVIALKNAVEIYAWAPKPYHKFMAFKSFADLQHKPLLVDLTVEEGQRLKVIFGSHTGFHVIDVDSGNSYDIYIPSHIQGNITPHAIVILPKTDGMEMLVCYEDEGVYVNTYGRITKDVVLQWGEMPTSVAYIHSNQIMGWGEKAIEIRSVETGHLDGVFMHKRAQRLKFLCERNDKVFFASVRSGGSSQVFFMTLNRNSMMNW", "assay": "Selectivity interaction (KinomeScan (DiscoverX)) EUB0000695a TNIK", "settings": "at 100 nM"}, "[8]": {"molecular_target": "T4, Tyrosine-protein kinase ZAP-70 (Homo sapiens) (UniProt P43403)", "T4 sequence (whole entry)": "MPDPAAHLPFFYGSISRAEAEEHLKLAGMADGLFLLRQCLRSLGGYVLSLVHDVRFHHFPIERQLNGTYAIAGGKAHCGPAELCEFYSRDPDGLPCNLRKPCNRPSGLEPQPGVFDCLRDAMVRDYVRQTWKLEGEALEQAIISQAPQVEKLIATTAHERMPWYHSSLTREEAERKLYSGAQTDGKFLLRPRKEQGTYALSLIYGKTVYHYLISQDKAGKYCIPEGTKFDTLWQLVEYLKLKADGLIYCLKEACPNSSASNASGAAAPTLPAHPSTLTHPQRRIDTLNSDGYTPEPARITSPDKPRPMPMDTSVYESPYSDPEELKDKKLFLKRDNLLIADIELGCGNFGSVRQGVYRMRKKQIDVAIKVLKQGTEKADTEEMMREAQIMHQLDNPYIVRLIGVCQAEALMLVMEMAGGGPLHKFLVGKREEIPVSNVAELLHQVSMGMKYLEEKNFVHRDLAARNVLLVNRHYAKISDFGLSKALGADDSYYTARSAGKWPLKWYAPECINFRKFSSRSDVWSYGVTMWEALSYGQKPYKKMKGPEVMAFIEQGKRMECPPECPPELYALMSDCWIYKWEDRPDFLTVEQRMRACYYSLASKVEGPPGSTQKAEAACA", "assay": "Selectivity interaction (KinomeScan (DiscoverX)) EUB0000695a ZAP70", "settings": "at 100 nM"}},
  "data": [
    {"smiles": "CC(=O)c1cc(-c2ccccc2OCC2CC2)c2ncccn12", "values": [
      {"measurement": "% of control", "setting": "D(1A) dopamine receptor", "result": 90, "unit": "%"}
    ]},
    {"smiles": "O[C@H]1CC[C@H](Nc2ncc3nc(Nc4c(F)cc(F)cc4F)n([C@H]4CCOC4)c3n2)CC1", "values": [
      {"measurement": "% of control", "setting": "[1]", "result": 100, "unit": "%"}
    ]},
    {"smiles": "Cc1ccc(-c2ccc3c(ccc4sc5c(c43)NC[C@@H](C)NC5=O)n2)cn1", "values": [
      {"measurement": "% of inhibition", "setting": "[2]", "result": 40, "unit": "%"}
    ]},
    {"smiles": "Cc1cc([C@@H](C)Nc2ccccc2C(=O)O)c2nc(N3CCOCC3)cc(=O)n2c1", "note": "[AZD-6482]", "values": [
      {"measurement": "% of control", "setting": "[3]", "result": 100, "unit": "%"}
    ]},
    {"smiles": "Cn1cc(-n2cnc3c(NCc4nc5cc(Cl)c(Cl)cc5[nH]4)nc(N4CCOCC4)nc32)cn1", "values": [
      {"measurement": "% of inhibition", "setting": "[4]", "result": -34.6, "unit": "%"}
    ]},
    {"smiles": "Cc1cc(F)c(C(=O)Nc2cccc(-c3nncn3C(C)C)n2)cc1-n1cnc(C2CC2)c1", "values": [
      {"measurement": "% of control", "setting": "[5]", "result": 85, "unit": "%"},
      {"measurement": "% of control", "setting": "[6]", "result": 90, "unit": "%"},
      {"measurement": "% of control", "setting": "[7]", "result": 78, "unit": "%"},
      {"measurement": "% of control", "setting": "[8]", "result": 100, "unit": "%"}
    ]}
  ]
}
